Patent US5120831A, “Metal-peptide compositions” (ProCyte Corporation, priority 1989, dated 1992)
“Also recorded” adds a separate entry of the source.

Assays:
hair growth [1] = experiment: Stimulation of hair growth in shaved mice by subdermal/intradermal injection; format: in vivo; details: for significant acceleration of hair growth within, following injection: injected once; for significant acceleration of hair growth within, following the injection: Example 12: 500 and 1000 micrograms per mouse; for hair growth (photograph of injected mice): visual, injection sites versus surrounding shaved areas; for % POS. RESPONSE: hair growth at both injection sites = positive
Excerpt: Increasing doses of glycyl-L-histidyl-L-lysyl-L-valyl-L-phenylalanyl-L-valine:copper(II) in aqueous solution was infiltrated under the skin in two locations. Mice are examined daily for signs of hair growth in the shaved area and at the injection sites. […] Hair growth at both injection sites is considered a positive response.
Mice were shaved and injected in two locations with an aqueous solution of glycyl-L-histidyl-L-lysine octyl ester:metal ion (GHL octyl:metal ion) at a ratio of peptide to metal ion of 2:1. A dose of 500 micrograms was injected per mouse.
Hair growth at both injection sites is considered a positive response.
Mice were shaved and injected in two locations with an aqueous solution of L-lysyl-L-histidyl-glycine octyl ester:copper(II) (LHG Octyl:Cu) and L-lysyl-L-histidyl-glycyl-L-L-valyl-L-phenylalanyl-L-valine:Cu (LGHVFV:Cu) at a ratio of peptide to metal ion of 2:1, and at a dose of 500 and 1000 micrograms per mouse. Hair growth at both injection sites is considered a positive response.
Mice were shaved and injected intradermally in two locations with various doses of glycyl-L-(3-methyl)-histidyl-L-lysyl-glycyl-L-tryptophan:copper(II). […] Hair growth at both injection sites is considered a positive response.
Mice were shaved and injected once with glycyl-L-histidyl-L-lysine n-octyl ester:copper(II) at a dose of 500 micrograms per mouse.
A group of ten mice were shaved and injected once with glycyl-L-histidyl-L-lysine decyl ester:copper(II) at a dose of 500 micrograms per mouse.
A group of 10 mice were shaved and injected once with glycyl-L-histidyl-L-lysine palmityl ester:copper(II) at a dose of 500 micrograms per mose.

[2] = system: hair follicles and subcutaneous fat layer; experiment: Histological evaluation of skin biopsies through the area of accelerated hair growth; format: in vivo, mice; details: for hair follicles in histological sections / subcutaneous fat layer in histological sections: skin biopsy through the site of injection / area of accelerated hair growth
Excerpt: Moreover, the surrounding skin contains telogen state follicles resting in the dermal layer, and a gradation of effect is observed as you move closer to the injection site. […] FIG. 4 is a photograph which illustrates the histological section from a mouse injection with glycyl-L-histidyl-L-lysyl-L-valyl-L-phenylalanyl-L-valine:copper(II). The area of injection is on the right side of the photograph. A decrease in hair follicle density and the subcutaneous fat layer is observed at increasing distance from the injection site.
It is known that the thickness of this fat layer is directly associated with hair growth. This increase in subcutaneous fat is shown by taking a biopsy sample at day 21 through the area and sectioning for histology slides. […] The injected area is on the right with the adjacent uninjected area on the left of the photograph.
A group of ten mice were shaved and injected once with glycyl-L-histidyl-L-lysine decyl ester:copper(II) at a dose of 500 micrograms per mouse. […]

hair growth [3] = experiment: Stimulation of hair growth in shaved mice by daily topical application; format: in vivo; details: treated daily; 1% (w/w) in Nonocynol-9 5% / Unibase Cream 94%; peptide to metal ion 2:1
Excerpt: Hair growth at the treated site is considered a positive response.

[4] = two locations, peptide to metal ion 2:1
[5] = dose 0.5 mg, two locations, peptide to metal ion 2:1
[6] = dose 1.0 mg, two locations, peptide to metal ion 2:1
[7] = Exp. 1, dose 500 mg, intradermally in two locations

glycyl-L-histidyl-L-lysine palmityl ester:copper(II)
significant acceleration of hair growth within, following injection (hair growth [1]; 500 micrograms per mouse): 2-3 weeks | hair follicles in histological sections [2]: large number of developing hair follicles within the subcutaneous fat layer

L-lysyl-L-histidyl-glycine octyl ester:copper(II) [LHG-Octyl:Cu]
significant acceleration of hair growth within, following the injection (hair growth [1]; [4]): 2-3 weeks | POSITIVE RESPONSE (No. Positive/Total No.) (hair growth [1]; [5]): 8/8 | POSITIVE RESPONSE, percent (hair growth [1]; [5]): 100% | POSITIVE RESPONSE (No. Positive/Total No.) (hair growth [1]; [6]): 5/5 | POSITIVE RESPONSE, percent (hair growth [1]; [6]): 100%

L-lysyl-L-histidyl-glycyl-L-valyl-L-phenylalanyl-L-valine:copper(II) [LHGVFV:Cu]
significant acceleration of hair growth within, following the injection (hair growth [1]; [4]): 2-3 weeks | POSITIVE RESPONSE (No. Positive/Total No.) (hair growth [1]; [5]): 9/10 | POSITIVE RESPONSE, percent (hair growth [1]; [5]): 90% | POSITIVE RESPONSE (No. Positive/Total No.) (hair growth [1]; [6]): 5/5 | POSITIVE RESPONSE, percent (hair growth [1]; [6]): 100%

glycyl-L-(3-methyl)-histidyl-L-lysyl-glycyl-L-tryptophan:copper(II)
hair growth noted within, following the injections (hair growth [1]; Example 14: various doses, intradermally in two locations): 2-3 weeks | POSITIVE RESPONSE (No. Positive/Total No.) (hair growth [1]; [7]): 5/5 | POSITIVE RESPONSE, percent (hair growth [1]; [7]): 100% | POSITIVE RESPONSE, percent (hair growth [1]; Exp. 2, dose 250 mg, intradermally in two locations): 100% | POSITIVE RESPONSE (No. Positive/Total No.) (hair growth [1]; Exp. 2, intradermally in two locations): 5/5

glycyl-L-histidyl-L-lysine decyl ester:copper(II)
significant acceleration of hair growth within, following injection (hair growth [1]; 500 micrograms per mouse): 2-3 weeks | hair growth (photograph of injected mice) (hair growth [1]): stimulated hair growth | hair shaft units within the subcutaneous fat layer ([2]; biopsy of area of accelerated growth, 500 micrograms per mouse, injected once): marked proliferation of hair shaft units; also recorded: marked proliferation of hair shafts | hair follicles in histological sections [2]: increased hair growth, fat cell layer and increased hair follicle density

glycyl-L-histidyl-L-lysyl-L-valyl-L-phenylalanyl-L-valine:copper(II)
diameter of circle of growth (hair growth [1]; 0.5 mg injection): approximately 0.5 cm | % POS. RESPONSE (hair growth [1]; dose 0.10 mg/inj., injected under the skin in two locations): 86% | % POS. RESPONSE (hair growth [1]; dose 0.25 mg/inj., two locations): 89% | % POS. RESPONSE (hair growth [1]; dose 0.50 mg/inj., two locations): 89% | % POS. RESPONSE (hair growth [1]; dose 1.00 mg/inj., two locations): 95% | active hair growth takes place between (hair growth [1]; following injection): 14 to 20 days | indications of hair growth seen within (hair growth [1]; following injection): ≤ 10 days | maximum effect seen by (hair growth [1]; following injection): ≤ 28 days | stimulated hair growth at and around the injection site by days (hair growth [1]; increasing doses, two locations, shaved on day 1): 14 to 21 days | hair growth at 25 days from the date of injection (photograph) (hair growth [1]; single injection site, versus control mouse injected with saline): accelerated hair growth | positive response, % of the mice injected (hair growth [1]; summary of series of experiments of Table 1, no response with saline): 80-90% | hair growth (photograph of injected mice) (hair growth [1]): accelerated hair growth at two injection sites | hair follicles in histological sections [2]: anagen state follicles | subcutaneous fat layer in histological sections [2]: thickening of the fat layer | mice showing accelerated hair growth in the area of topical application (number) (hair growth [3]): Four of the five | mice showing accelerated hair growth in the area of topical application (percent) (hair growth [3]): 80%

glycyl-L-histidyl-L-lysine octyl ester:copper(II) [GHL Octyl:Cu(II)]
POSITIVE RESPONSE (No. Positive/Total No.) (hair growth [1]; 500 micrograms per mouse, two locations, peptide to metal ion 2:1, hair growth at both sites = positive): 4/4 | significant acceleration of hair growth within, following injection (hair growth [1]; 500 micrograms per mouse): 2-3 weeks | increase in the subcutaneous fat layer in the skin near the injection site (measurements) ([2]; biopsy at day 21, 500 micrograms per mouse, injected once, versus adjacent uninjected area): approximately threefold increase | number and size of the fat cells ([2]; biopsy at day 21, injected area versus adjacent uninjected area): obvious increase in both the number and size of the fat cells | subcutaneous fat layer in histological sections ([2]; listed as glycyl-L-histidyl-L-lysine n-octyl ester:copper(II)): significant increase in the thickness of the subcutaneous fat layer
